Several values for one entry are separate records, joined by “and”; a condition that tells them apart may be missing. Identical values can stand only once.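 Protocol summary: plate cells (96-well), add compound at 5 concentrations, incubate 48 h, interpolate endpoints linearly. The concentration for 50% growth inhibition is given as GI50. TGI: concentration producing complete growth inhibition.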
Assays:
Assay in all cases: NCI anticancer screen, dose series, 48 h
DU-145 prostate = system: DU-145 prostate
RPMI-8226 leukemia = system: RPMI-8226 leukemia
CCRF-CEM leukemia = system: CCRF-CEM leukemia
U251 CNS = system: U251 CNS
T-47D breast = system: T-47D breast
ACHN renal = system: ACHN renal
A549 NSCLC = system: A549 NSCLC
EKVX NSCLC = system: EKVX NSCLC
HCC-2998 colon = system: HCC-2998 colon
COLO 205 colon = system: COLO 205 colon

| SMILES | GI50 (DU-145 prostate) | TGI (DU-145 prostate) | GI50 (RPMI-8226 leukemia) | TGI (RPMI-8226 leukemia) | GI50 (CCRF-CEM leukemia) | TGI (CCRF-CEM leukemia) | GI50 (U251 CNS) | TGI (U251 CNS) | GI50 (T-47D breast) | TGI (T-47D breast) | GI50 (ACHN renal) | TGI (ACHN renal) | GI50 (A549 NSCLC) | TGI (A549 NSCLC) | GI50 (EKVX NSCLC) | TGI (EKVX NSCLC) | GI50 (HCC-2998 colon) | TGI (HCC-2998 colon) | GI50 (COLO 205 colon) | TGI (COLO 205 colon) |
| --- | --- | --- | --- | --- | --- | --- | --- | --- | --- | --- | --- | --- | --- | --- | --- | --- | --- | --- | --- | --- |
| CC(C)n1c(/C=C/[C@@H](O)C[C@@H](O)CC(=O)O)c(-c2ccc(F)cc2)c2ccccc21 | 24.8 µM and 26.4 µM | > 100 µM | 5.55 µM and 10.3 µM | > 100 µM | 13.8 µM and 13.4 µM | > 100 µM | 0.455 µM and 0.558 µM | > 100 µM | 14.2 µM and 13.8 µM | > 100 µM | 0.725 µM and 0.558 µM | > 100 µM | 5.93 µM and 6.99 µM | > 100 µM | 16.8 µM | > 100 µM | 10.4 µM and 28.4 µM | > 100 µM | 4.44 µM and 6.2 µM | 15.3 µM and > 65.1 µM |
| S=C(N/N=C/c1cc(Cl)cc(Cl)c1)NC12CC3CC(CC(C3)C1)C2 | 12.8 µM | > 100 µM | > 100 µM | > 100 µM | > 61.1 µM | > 100 µM | 3.18 µM | > 33.6 µM | 6.94 µM | > 100 µM | 2.29 µM | 8.05 µM | 3.51 µM | > 100 µM |  |  | > 100 µM | > 100 µM | 7.13 µM | > 100 µM |
| CC[C@H](C)[C@H](NC(=O)c1cnccn1)C(=O)N(C)[C@H](C[C@@H](OC(C)=O)c1nc(C(=O)N[C@@H](Cc2ccccc2)C[C@H](C)C(=O)OC)cs1)C(C)C | 1.23 µM | > 33.3 µM | 1.07 µM | > 33.3 µM | 1.15 µM | > 33.3 µM | 1.18 µM | > 33.3 µM | 2.48 µM | > 33.3 µM | 2.69 µM | > 33.3 µM | 3.22 µM | > 33.3 µM | 1.75 µM | > 33.3 µM | 1.35 µM | > 33.3 µM | 1.17 µM | 4.1 µM |
| COc1ccc2nc(-c3ccccc3)cc(Nc3cccc(/C(C)=N\O)c3)c2c1 | 6.46 µM | 31.9 µM | 4.89 µM | > 100 µM | 58.7 µM | > 100 µM | 6.05 µM | 48.5 µM | 4.01 µM | > 100 µM | 7.29 µM | > 100 µM | 4.67 µM | > 100 µM | 19.2 µM | 86.9 µM | 46.2 µM | > 100 µM | 21.4 µM | > 100 µM |
| O=C(Nc1ccc(OC(F)(F)F)cc1)c1sccc1NCc1ccnc2ccccc12 | 3.65 µM | > 100 µM | 3.32 µM | 29.8 µM | 3.72 µM | > 100 µM | 6.92 µM | > 100 µM | 2.48 µM | > 95.9 µM | 2.56 µM | > 100 µM | 4.11 µM | > 100 µM | 2.35 µM | > 100 µM | 4.82 µM | > 100 µM | 3.74 µM | 13.8 µM |
| Clc1ccc(COC(Cn2ccnc2)c2ccc(Cl)cc2Cl)cc1 (centres undefined) | 5.41 µM | 17.8 µM and 30.1 µM and 28.2 µM | 1.9 µM | 6.82 µM and 32.3 µM and 23.2 µM | 3.22 µM | 14.1 µM and 23.7 µM and 21.1 µM | 2.04 µM | 7.46 µM and 28.6 µM and 26 µM | 2.26 µM | 8.76 µM and 23.4 µM and 19.9 µM | 3.59 µM | 12.6 µM and 29.8 µM and 25.9 µM | 2.78 µM | 12.1 µM and 27 µM and 23.9 µM | 2.91 µM | 13.9 µM and 25.5 µM and 27.5 µM | 2.72 µM | 10.5 µM and 29.6 µM and 30 µM | 1.84 µM | 3.97 µM and 24.6 µM and 22.5 µM |
| Cc1cccc(NC(=O)c2sc3nc4c(cc3c2N)CCCC4)c1C | 0.454 µM | > 100 µM | 0.354 µM | > 100 µM | 0.375 µM | > 100 µM | 0.416 µM | > 100 µM | 0.505 µM | > 100 µM | 0.68 µM | > 100 µM | 0.612 µM | > 100 µM | 0.708 µM | > 100 µM | 1.59 µM | > 100 µM | 0.344 µM | 27.6 µM |
| N#CC(C#N)SCc1ccccc1 |  | 55.3 µM |  | > 38.6 µM |  | > 87 µM |  | 56.6 µM |  | > 100 µM |  | > 100 µM |  | > 100 µM |  | > 100 µM |  | > 100 µM |  | > 33.2 µM |
| CCOC(=O)c1c(NC(=O)c2ccc(C(C)C)cc2)sc2c(CN(C)C)c(O)ccc12 | 2.2 µM | 5.21 µM | 1.84 µM | 4.6 µM | 2.33 µM | 7.35 µM | 2.59 µM | 7.13 µM | 2.01 µM | 5.17 µM | 3.03 µM | 9.24 µM | 4.29 µM | 20.7 µM | 2.78 µM | 9.09 µM | 1.88 µM | 3.51 µM | 2.06 µM | 4.5 µM |
| CC(=O)c1cccc(N(/C=C/C(=O)C(F)(F)F)CC(=O)c2ccc(Cl)cc2)c1 | > 100 µM | > 100 µM | > 100 µM | > 100 µM | > 100 µM | > 100 µM | > 100 µM | > 100 µM | > 100 µM | > 100 µM | > 100 µM | > 100 µM | > 100 µM | > 100 µM | > 100 µM | > 100 µM | > 100 µM | > 100 µM | > 100 µM | > 100 µM |
| CC1(C)N=C(N)N=C(N)N1c1ccc(CCc2ccccc2)c(Cl)c1 | 0.0911 µM | 15.8 µM | 0.336 µM | 14 µM | 0.0597 µM | 15.3 µM | 0.0427 µM | 13 µM | 0.698 µM | 13 µM | 1.97 µM | > 100 µM | 0.0452 µM | 14 µM |  |  | 0.361 µM | 13.3 µM | 0.0694 µM | 6.83 µM |
| C[C@]12CC[C@@H]3c4ccc(O)c([N+](=O)[O-])c4CC[C@H]3[C@@H]1CC[C@@H]2NS(=O)(=O)c1ccc(C(F)(F)F)cc1 | 2.63 µM | 7.11 µM | 2.17 µM | 5.4 µM | 2.34 µM | 7.95 µM | 1.56 µM | 3.13 µM | 2.45 µM | 7.22 µM | 2.17 µM | 6.78 µM | 1.98 µM | 6.07 µM |  |  | 2.05 µM | 4.02 µM | 3.05 µM | 9.4 µM |
